Results from PubChem BioAssay (NCI).
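Protocol summary: plate cells (96-well), add compound at 5 concentrations, incubate 48 h, interpolate endpoints linearly. At the GI50, growth is halved. At the TGI there is no net growth.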

System: MDA-MB-468 breast
Assay: NCI anticancer screen, dose series, 48 h

Row | Compound | GI50 [µM] | TGI [µM]
1 | Cc1cn(C2CC(F)C(CO)O2)c(=O)[nH]c1=O (configuration not stated) | > 100 | > 100
2 | Cc1ccc(C(CN(C)C)C(=O)c2ccccc2)cc1 (configuration not stated) | 1.32 | 3.61
3 | C=C1C(=O)O[C@H]2[C@H]1CC/C(COC(=O)NCc1cc3ccccc3[nH]1)=C\CC[C@@]1(C)O[C@@H]21 | 1.06 | 3.4
4 | COc1ccc(-c2cc(-c3ccc(OC)c(OC)c3)nc(SCCCC(=O)NO)n2)cc1 | 1.18 | 3.44
5 | CN(C)CCCn1c2c(c3cnccc3c1=O)C(=O)c1ccccc1-2 | 0.352 | 2.54
6 | COCCn1cc(-c2csc(-c3c[nH]c4ccccc34)n2)c2cccnc21 | 0.974 | 6.68
7 | COc1ccccc1-[n+]1cc(-c2ccc(-c3ccccc3)cc2)n2c1CCCCC2 | – | 0.838
8 | N[C@@H](Cc1c[nH]c2ccccc12)C(=O)NC1CCN(C(=O)c2c[nH]c3ccccc23)CC1 | 54.2 | > 100
9 | Cc1ccc(C(=O)Nc2ccc(CN3CCN(C)CC3)c(C(F)(F)F)c2)cc1C#Cc1cnc(N)cc1C#N | 0.399 | 1.23
10 | NC(=O)c1cnc(N[C@@H]2CCCC[C@@H]2N)nc1Nc1cccc(-n2nccn2)c1 | 3.27 | 11.5
11 | Oc1ccc(/C=N\Nc2ccccn2)c(O)c1 | 2.43 | 8.56
12 | C1CC[N-]CC1.C1CC[N-]CC1.C1CC[N-]CC1.C1CC[N-]CC1.[Cl][Rh][Cl] | 2.17 | 15.3
13 | Cc1c(C#N)cccc1-c1cc(-c2cn(Cc3cccc(C(C)(C)O)n3)nn2)nc(N)n1 | 7.58 | 55.6
14 | CC(C)Oc1cc2c(cc1O)CC[C@@H]1[C@@H]2CC[C@]2(C)[C@@H](O)CC[C@@H]12 | 4.16 | 25.6
